Numbered stars: 1 amine (or outer) side, 2 acyl side, 3 side chain; on linkers, the order of the positions; unused ones are H or OH. Bridge positions count the residues as written; N and C are the ends. Square brackets hold non-standard residues; d marks the D form. Peptide text beside a SMILES is read from it. ξ: configuration not given here. ξαMeNle(6-ylidene) = CC(CCCC=[*:3])(N[*:1])C(=O)[*:2]; Nle = CCCC[C@H](N)C(=O)O

Data set [1] is described as follows: Melting temperature determination by circular dichroism. It counts as physicochemical. To be noted: 50 μM in ddH2O, CD at 222 nm, 5-95° C. The method, then:
To assay the effect of macrocycle formation on meltine temperature, peptidomimetic macrocycles or unmodified peptides are dissolved in distilled H2O (e.g. at a final concentration of 50 μM) and the Tm is determined by measuring the change in ellipticity over a temperature range (e.g. 4 to 95° C.) on a spectropolarimeter (e.g., Jasco J-710) using standard parameters (e.g. wavelength 222 nm; step resolution, 0.5 nm; speed, 20 nm/sec; accumulations, 10; response, 1 sec; bandwidth, 1 nm; temperature increase rate: 1° C./min; path length, 0.1 cm).
Lyophilized SP-1 was dissolved in ddH2O to a final concentration of 50 μM. Tm was determined by measuring the circular dichroism (CD) spectra in a Jasco-810 spectropolarimeter at a fixed wavelength of 222 nm between the temperatures of 5-95° C. The following parameters were used for the measurement: data pitch, 0.1° C.; bandwidth, 1 nm and path length, 0.1 cm averaging the signal for 16 seconds.

The test system of data set [2] is resting human peripheral lymphocytes (hPBLs). Nature of the data set: Cell viability of resting hPBLs. The settings on record: FIG. 16. Format: cell-based. The method, then:
(§1) Cell viability assays shown in FIGS. 1-32 were performed according to the following protocol. Tumor cell lines were grown in specific serum-supplemented media (growth media) as necessary. A day prior to the initiation of the study, cells were plated at optimal cell density (15,000 to 25,000 cells/well) in 200 μl growth media in microtiter plates. The next day, cells were washed twice in serum-free/phenol red-free RPMI complete media (assay buffer) and a final volume of 100 μl assay buffer was added to each well. Human peripheral blood lymphocytes (hPBLs) were isolated from Buffy coats (San Diego Blood Bank) using Ficoll-Paque gradient separation and plated on the day of the experiment at 25,000 cells/well.
(§2) Peptidomimetic macrocycles were diluted from 1 mM stocks (100% DMSO) in sterile water to prepare 400 μM working solutions. The peptidomimetic macrocycles and controls were then diluted 10 or […] or alternatively serially two-fold diluted in assay buffer in dosing plates to provide concentrations of either 40 and 20 μM or between 1.2 and 40 μM, respectively. […]
(§3) Towards the end of the 4 hour incubation time, 22 μl FBS was added to each well for a total concentration of 10% FBS. […] At the end of the incubation period, MTT assay was performed according to manufacturer's instructions (Sigma, catalog #M2128) and absorbance was measured at 560 nm using Dynex Opsys MR Plate reader. […]

The test system of data set [3] is SEMK2 human leukemia xenograft. Nature of the data set: SEMK2 human leukemia xenograft model. It counts as in vivo, NOD-SCID mice. To be noted: daily tail vein injection, 3, 10 or 30 mg/Kg/day. The method, then:
To determine the anti-oncogenic activity of peptidomimetic macrocycles of the invention in vivo, the compounds are, for example, given alone (IP, IV, SC, PO, by inhalation or nasal routes) or in combination with sub-optimal doses of relevant chemotherapy (e.g., cyclophosphamide, doxorubicin, etoposide). In one example, 5×10^6 SEMK2 cells (established from the bone marrow of a patient with acute lymphoblastic leukemia) that stably express luciferase are injected by tail vein in NOD-SCID, SCID-beige or NOD.IL2rg KO mice 3 hrs after they have been subjected to total body irradiation. Non-radiated mice may also be used for these studies. If left untreated, this form of leukemia is fatal in 3 weeks in this model. The leukemia is readily monitored, for example, by injecting the mice with D-luciferin (60 mg/kg) and imaging the anesthetized animals (e.g., Xenogen In Vivo Imaging System, Caliper Life Sciences, Hopkinton, Mass.). Total body bioluminescence is quantified by integration of photonic flux (photons/sec) by Living Image Software (Caliper Life Sciences, Hopkinton, Mass.). […] Optionally, the mice are imaged throughout the experiment every other day and survival monitored daily for the duration of the experiment. […]
(In general: Xenograft models place foreign cells or tissue in a host animal.)

The next data set deals with NCI-H220. The data set can be described thus: MTT cell viability assay, NCI-H220. Format: cell-based, human. To be noted: 20 μM, MTT 48 hrs, FIG. 1. The method, then:
as §1, §2, §3

The next data set concerns MCF7. The data set can be described thus: MTT cell viability assay, MCF7. It counts as cell-based, human. To be noted: 20 μM, MTT 48 hrs, FIG. 1. How it is done:
as §1, §2, §3
(In general: Tetrazolium dyes change colour on reduction, which living cells bring about.)

For `CCCC[C@H](NC(=O)C1(C)CCCC=CCCCC(C)(NC(=O)[C@H](C)NC(=O)[C@H](CC(C)C)NC(=O)[C@H](Cc2c[nH]cn2)NC(=O)[C@H](CCCNC(=N)N)NC(=O)[C@H](C)NC(=O)[C@@H](NC(=O)[C@H](CC(N)=O)NC(=O)[C@H](CCCNC(=N)N)NC(=O)[C@@H](NC(=O)[C@@H](NC(=O)[C@H](CC(=O)O)NC(C)=O)[C@@H](C)CC)[C@@H](C)CC)[C@@H](C)CC)C(=O)N[C@@H](C(C)C)C(=O)NCC(=O)N[C@@H](CC(=O)O)C(=O)N1)C(=O)N[C@@H](CC(=O)O)C(=O)N[C@@H](CCCNC(=N)N)C(=O)N[C@@H](CO)C(=O)N[C@H](C(N)=O)[C@@H](C)CC` (some centres unmarked) [SP-1] (Ac-DIIRNIARHLA[ξαMeNle(6-ylidene)]VGD[ξαMeNle(6-ylidene)][Nle]DRSI-NH2; staple 12-16), the “temperature up to which helical conformation is maintained” value in data set [1] is “up to 64 °C”. The “programmed cell death of resting hPBLs” value in data set [2] was “does not induce programmed cell death”. Also, the “tumor burden / tumor progression (total body bioluminescence)” value in data set [3] is “decreases tumor burden”. For the same molecule, the “apoptosis of NCI-H220 (SCLC)” value in the data set with NCI-H220 was “induced apoptosis”. Also, the “sensitivity of MCF7 (breast cancer)” value with MCF7 is recorded as “resistant”.

For the origin of these results see patent US20150038430A1, “THERAPEUTIC PEPTIDOMIMETIC MACROCYCLES” (AILERON Therapeutics, Inc., priority 2008, published 2015).
